From ChEMBL document CHEMBL1147373, “Patagonicol: a diterpenoid from the Chinese soft coral Alcyonium patagonicum” (J Nat Prod, 1993)
Calls of active or inactive are those of the source. The rule behind the calls is not given here.

Columns and labels:
[1] = system: P388; experiment: Cytotoxicity against mouse P388 cells; type: functional, cell-based
[2] = system: Candida albicans; experiment: Antifungal activity against Candida albicans; type: functional, organism-based

C=C1CC[C@H](C(C)C)[C@@H]2[C@H]1[C@H]1C[C@](C)(O)[C@@H](OCC)CC[C@@](C)(O)[C@@H]2O1
Activity [1]: inactive | Activity [2]: inactive
